“Also recorded” adds a separate entry of the source.
Legend:
Assay type in all cases: physicochemical
[1] = Evaluation of change in content on storage (HPLC)
Source text: (§1) In order to evaluate the stability of the compound according to the present invention, an alkylcarbamoyl naphthalenyloxy octenoyl hydroxyamide compound was used in Comparative Example 1, an alkyl carbamoyl naphthalenyloxy octenoyl hydroxyamide tartrate was used in Example 13 and alkylcarbamoyl naphthalenyloxy octenoyl hydroxyamide phosphate was used in Example 14. As alkylcarbamoyl naphthalenyloxy octenoyl hydroxyamide, (E)-N1-(3-(dimethylamino)propyl)-N8-hydroxy-2-((naphthalen-1-yloxy)methyl)-2-octenediamide compound was used. Evaluation of stability was conducted by observing the change with storage time under room temperature (20-25° C., 50% or less), long-term (25±2° C. and 60±5% RH), accelerated (40±2° C. and 75±5% RH) and severe (60±2° C.) conditions.
In order to evaluate the change in the content of the compounds according to Examples, each compound was stored in an open state or in a polyethylene bottle packaging (silica gel added) to measure the change in content. For measurement of content, compounds of Comparative Examples and Examples were pretreated and then the solutions were tested according to the liquid chromatography method of the general test methods of the Korean Pharmacopoeia to determine the peak area of CG200745 (measurement equipment: HPLC LC-2030C_Shimadzu). The content standard is to contain CG200745 in an amount corresponding to 95.0-105.5% of the indicated amount according to the standards and test methods of the present applicant.
The results measured in the open state are shown in Table 14 below, and the results measured in the bottle packaging are shown in Table 15 below.

[2] = Comparison of the amount of change in related substances of the compounds; settings: for increase in the amount of related substances: open state at room temperature for 3 days
Protocol: In order to evaluate the amount of change in the related substances of Example 12, the composition of Example 12 was placed in an accelerated condition chamber ([…], 75%±5), and the amount of related substance produced was measured for 6 months. For the measurement of the amount of related substances produced, the composition of Example 12 was pretreated and then tested according to the liquid chromatography method of the general test method of the Korean Pharmacopoeia to determine peak areas of the produced related substances (individual related substance 0.2% or less, total related substances 1.0%, measuring equipment: HPLC LC-2030C_Shimadzu). In Table 12, the amount of related substances produced is expressed in %. In addition, FIG. 3 is a result of measuring the related substance at 28 minutes under the accelerated condition, and the reference value is 0.2%.
In order to evaluate the amount of change in related substances of the compounds according to Comparative Examples and Examples, each compound was stored in an open state at room temperature for 3 days, and then the amount of related substances produced was measured in the same manner as in Experimental Example 3 and the results are shown in FIG. 5.
In addition, changes in the amount of related substances produced according to temperature and storage period are shown in FIGS. 6 and 7 for the compounds according to Examples 13 and 14.

[3] = Evaluation of change in moisture content (Karl Fischer); settings: open state, room temperature (20 to 25° C., 50% or less), after 3 days versus initial
Source text: as §1
In order to evaluate the change in moisture content, the compounds according to Examples and Comparative Examples were stored in an open state at room temperature (20 to 25° C., 50% or less), and the change was measured by the difference between the initial moisture content and the moisture content after 3 days, and the results are shown in FIG. 4. Moisture content was measured according to the volumetric titration method among methods of determining the water content (Karl Fischer method) of the general test methods of the Korean Pharmacopoeia (measurement equipment: 701KF_Metrohm).

[4] = Evaluation of change in appearance on storage; settings: for change in appearance: open state storage, all conditions
Source text: as §1
In order to evaluate the change in appearance of the compounds according to Comparative Examples and Examples, each compound was stored in an open state according to the conditions shown in Table 13 below, and then the change in appearance was observed.

[5] = bottle packaging, 1 day, Accelerated
[6] = bottle packaging, 1 day, Long-term
[7] = bottle packaging, 1 day, Room temperature
[8] = bottle packaging, 1 day, Severe
[9] = bottle packaging, 3 days, Accelerated
[10] = bottle packaging, 3 days, Long-term
[11] = bottle packaging, 3 days, Room temperature
[12] = bottle packaging, 7 days, Accelerated
[13] = bottle packaging, 7 days, Long-term
[14] = bottle packaging, 7 days, Room temperature
[15] = polyethylene bottle packaging (silica gel added), Initial
[16] = open state, 1 day, Accelerated (40±2° C., 75±5% RH)
[17] = open state, 1 day, Long-term (25±2° C., 60±5% RH)
[18] = open state, 7 days, Room temperature (20-25° C., 50% or less)

Structure (SMILES): CN(C)CCCNC(=O)/C(=C/CCCCC(=O)NO)COc1cccc2ccccc12 [Comparative Example 1, (E)-N1-(3-(dimethylamino)propyl)-N8-hydroxy-2-((naphthalen-1-yloxy)methyl)-2-octenediamide, reference compound]
- content of CG200745 [1, 5]: 89.1%
- content of CG200745 [1, 6]: 99.1%
- content of CG200745 [1, 7]: 99.3%
- content of CG200745 [1, 8]: 101.2%
- content of CG200745 [1, 9]: 84.0%
- content of CG200745 [1, 10]: 84.0%
- content of CG200745 [1, 11]: 99.5%
- content of CG200745 [1, 12]: 78.5%
- content of CG200745 [1, 13]: 78.5%
- content of CG200745 [1, 14]: 99.4%
- content of CG200745 ([1]; open state, 1 day, Accelerated, listed as Comp. Ex. 1): 92.3%
- content of CG200745 ([1]; open state, 1 day, Long-term, listed as Comp. Ex. 1): 99.9%
- content of CG200745 ([1]; open state, 1 day, Room temperature, listed as Comp. Ex. 1): 101.0%
- content of CG200745 ([1]; open state, 1 day, Severe, listed as Comp. Ex. 1): 101.1%
- content of CG200745 ([1]; open state, 3 days, Room temperature, listed as Comp. Ex. 1): 101.9%
- content of CG200745 ([1]; open state, 3 days, Severe, listed as Comp. Ex. 1): 97.2%
- content of CG200745 ([1]; open state, 7 days, Room temperature, listed as Comp. Ex. 1): 100.1%
- content of CG200745 ([1]; open state, 7 days, Severe, listed as Comp. Ex. 1): 89.1%
- content of CG200745 ([1]; open state, Initial, listed as Comp. Ex. 1): 98.9%
- content of CG200745 [1, 15]: 98.9%
- increase in the amount of related substances [2]: about 10%
- increase in moisture content [3]: about 3%
- appearance ([4]; Initial, listed as Comp. Ex. 1): Foam
- change in appearance [4]: changed from a foam to a highly viscous liquid or gel
- appearance [4, 16]: Gel-like
- appearance [4, 17]: Gel-like
- appearance ([4]; open state, 1 day, Room temperature (20-25° C., 50% or less), listed as Comp. Ex. 1): Gel-like
- appearance ([4]; open state, 1 day, Severe (60±2° C.), listed as Comp. Ex. 1): Gel-like

Structure (SMILES): CN(C)CCCNC(=O)/C(=C/CCCCC(=O)NO)COc1cccc2ccccc12 [Example 13, (E)-N1-(3-(dimethylamino)propyl)-N8-hydroxy-2-((naphthalen-1-yloxy)methyl)-2-octenediamide]
- content of CG200745 ([1]; open state, 1 day, Accelerated, listed as Ex. 13): 104.6%
- content of CG200745 ([1]; open state, 1 day, Long-term, listed as Ex. 13): 104.3%
- content of CG200745 ([1]; open state, 1 day, Room temperature, listed as Ex. 13): 103.4%
- content of CG200745 ([1]; open state, 1 day, Severe, listed as Ex. 13): 103.3%
- content of CG200745 ([1]; open state, 3 days, Accelerated): 102.3%
- content of CG200745 ([1]; open state, 3 days, Long-term): 102.6%
- content of CG200745 ([1]; open state, 3 days, Room temperature, listed as Ex. 13): 102.6%
- content of CG200745 ([1]; open state, 3 days, Severe, listed as Ex. 13): 99.6%
- content of CG200745 ([1]; open state, 7 days, Accelerated): 100.7%
- content of CG200745 ([1]; open state, 7 days, Long-term): 99.4%
- content of CG200745 ([1]; open state, 7 days, Room temperature, listed as Ex. 13): 100.0%
- content of CG200745 ([1]; open state, 7 days, Severe, listed as Ex. 13): 102.2%
- content of CG200745 ([1]; open state, Initial, listed as Ex. 13): 99.5%
- content on storage ([1]; under the room temperature condition): maintained at a certain level
- amount of related substances produced according to storage temperature ([2]; FIG. 6): maintained within a certain range at a relatively low temperature
- increase in the amount of related substances [2]: 0.05%
- increase in moisture content [3]: 2%
- appearance ([4]; Initial, listed as Ex. 13): Powder
- appearance [4, 16]: Gel-like
- appearance [4, 17]: Gel-like
- appearance ([4]; open state, 1 day, Room temperature (20-25° C., 50% or less), listed as Ex. 13): Powder
- appearance ([4]; open state, 1 day, Severe (60±2° C.), listed as Ex. 13): Powder
- appearance [4, 18]: Powder
- appearance ([4]; open state, 7 days, Severe (60±2° C.), listed as Ex. 13): Powder; also recorded: Discoloration

Structure (SMILES): CN(C)CCCNC(=O)/C(=C/CCCCC(=O)NO)COc1cccc2ccccc12.O=P(O)(O)O [Example 14, (E)-N1-(3-(dimethylamino)propyl)-N8-hydroxy-2-((naphthalen-1-yloxy)methyl)-2-octenediamide phosphate]
- content on storage ([1]; all packaging conditions, heating, humidity): kept constant regardless of packaging conditions, heating, and humidity
- content of CG200745 [1, 5]: 101.2%
- content of CG200745 [1, 6]: 103.5%
- content of CG200745 [1, 7]: 98.6%
- content of CG200745 [1, 8]: 101.6%
- content of CG200745 [1, 9]: 100.1%
- content of CG200745 [1, 10]: 99.9%
- content of CG200745 [1, 11]: 98.8%
- content of CG200745 ([1]; bottle packaging, 3 days, Severe): 100.4%
- content of CG200745 [1, 12]: 101.1%
- content of CG200745 [1, 13]: 100.9%
- content of CG200745 [1, 14]: 99.3%
- content of CG200745 ([1]; bottle packaging, 7 days, Severe): 101.4%
- content of CG200745 [1, 15]: 99.5%
- increase in the amount of related substances [2]: 0.02%
- amount of related substances produced ([2]; regardless of the storage temperature and period (FIG. 7)): about 0.22%
- increase in moisture content [3]: about 0.01%
- appearance ([4]; Initial): Powder
- change in appearance [4]: remained constant regardless of the condition
- appearance [4, 16]: Powder
- appearance [4, 17]: Powder
- appearance ([4]; open state, 1 day, Room temperature (20-25° C., 50% or less)): Powder
- appearance ([4]; open state, 1 day, Severe (60±2° C.)): Powder
- appearance ([4]; open state, 7 days, Accelerated (40±2° C., 75±5% RH)): Powder
- appearance ([4]; open state, 7 days, Long-term (25±2° C., 60±5% RH)): Powder
- appearance [4, 18]: Powder
- appearance ([4]; open state, 7 days, Severe (60±2° C.)): Powder

Reference: patent publication US20210346321A1, “PHARMACEUTICAL COMPOSITION CONTAINING ALKYL CARBAMOYL NAPHTHALENYLOXY OCTENOYL HYDROXYAMIDE PHOSPHATE, TARTRATE OR COMBINATION THEREOF, AND PREPARATION METHOD THEREFOR” (CRYSTALGENOMICS, INC., priority 2018, published 2021)
